Assay results from ChEMBL document CHEMBL4421722, “Inhibitors of protein prenyltransferases” (2013).

Organism: Rattus norvegicus
Assay: Inhibition of rat recombinant geranylgeranyltransferase type I expressed in Escherichia coli assessed as residual enzyme activity for geranylgeranylation of K-Ras4B at 50 uM incubated for 30 mins in presence of [3H]GGPP by scintillation counting assay relative to control

First: Cc1ccc(S[C@@H]2C[C@@H](c3ccc(C)cc3)N(S(C)(=O)=O)C[C@H]2C(=O)O)cc1
Second: C=CCS[C@@H]1C[C@@H](c2ccc(C)cc2)N(S(=O)(=O)c2ccc(C)cc2)C[C@H]1C(=O)O
The Activity of the first is higher: 108% for the first, 94.1% for the second.

Compared with `Cc1ccc([C@@H]2CC=C(C(=O)O)[C@H](c3ccc(Cl)cc3)N2S(=O)(=O)c2ccc(C)cc2)cc1`, `Cc1ccc(S(=O)(=O)N2[C@@H](c3ccc(F)cc3)C(C(=O)O)=CC[C@H]2c2ccc(Cl)cc2)cc1` is lower in Activity: 67.4% for the first, 62% for the second.

Going from `Cc1ccc(S(=O)(=O)N2C[C@@H](C(=O)O)[C@H](SCC(C)C)C[C@H]2c2ccccc2F)cc1` to `Cc1ccc(S(=O)(=O)N2C[C@@H](C(=O)O)[C@H](SCCC(C)C)C[C@H]2c2ccccc2)cc1`, the Activity rises from 56.8% to 90%.

Going from `Cc1ccc(S(=O)(=O)N2[C@@H](c3ccc(Br)cc3)C(C(=O)O)=CC[C@H]2c2cccc(Cl)c2)cc1` to `Cc1ccc(S(=O)(=O)N2[C@@H](c3cccc(Cl)c3)C(C(=O)O)=CC[C@H]2c2ccc(C(C)C)cc2)cc1`, the Activity falls from 69.2% to 63.1%.

Compared with `Cc1ccc(S(=O)(=O)N2[C@@H](c3cccc(C)c3)C(C(=O)O)=CC[C@H]2c2cccs2)cc1`, `Cc1ccc([C@H]2C(C(=O)O)=CC[C@@H](c3cccs3)N2S(=O)(=O)c2ccc(C)cc2)cc1` is higher in Activity: 68.9% for the first, 73.4% for the second.

Compared with `Cc1ccc([C@@H]2CC=C(C(=O)O)[C@H](c3ccc(C(C)(C)C)cc3)N2S(=O)(=O)c2ccc(Cl)cc2)cc1`, `Cc1ccc([C@@H]2CC=C(C(=O)O)[C@H](c3ccc(C(C)(C)C)cc3)N2S(=O)(=O)c2ccc(C)cc2)cc1` is higher in Activity: 74.4% for the first, 85.5% for the second.

First: Cc1ccc(S(=O)(=O)N2C[C@@H](C(=O)O)[C@H](SC3CCCC3)C[C@H]2c2ccccc2)cc1
Second: Cc1ccc([C@@H]2C[C@@H](SC3CCCC3)[C@H](C(=O)O)CN2S(=O)(=O)c2ccc(Cl)cc2)cc1
The Activity of the first is higher: 93.6% for the first, 93.2% for the second.

Compared with `CCOc1ccc([C@@H]2C[C@@H](SCc3ccc(C(C)(C)C)cc3)[C@H](C(=O)O)CN2S(=O)(=O)c2ccc(C)cc2)cc1`, `COc1ccc([C@@H]2C[C@@H](SCc3ccc(C(C)(C)C)cc3)[C@H](C(=O)O)CN2S(=O)(=O)c2ccc(C)cc2)cc1` is lower in Activity: 46% for the first, 44.1% for the second.

First: Cc1ccc(S(=O)(=O)N2[C@@H](c3ccc(C(C)(C)C)cc3)C(C(=O)O)=CC[C@H]2c2cccc(C)c2)cc1
Second: Cc1ccc(S(=O)(=O)N2[C@@H](c3ccc(C(C)(C)C)cc3)C(C(=O)O)=CC[C@H]2c2cccc(Br)c2)cc1
The Activity of the first is lower: 56.1% for the first, 82.8% for the second.

Compared with `Cc1ccc(S(=O)(=O)N2[C@@H](c3cccc(F)c3)C(C(=O)O)=CC[C@H]2c2ccc(C(C)C)cc2)cc1`, `Cc1ccc(S(=O)(=O)N2[C@@H](c3cccc(F)c3)C(C(=O)O)=CC[C@H]2c2ccc(Cl)cc2)cc1` is higher in Activity: 72.8% for the first, 76.2% for the second.

Compared with `COc1ccc([C@@H]2CC=C(C(=O)O)[C@H](c3ccc(Cl)cc3)N2S(=O)(=O)c2ccccc2C)cc1`, `COc1ccc([C@@H]2CC=C(C(=O)O)[C@H](c3ccc(F)cc3)N2S(=O)(=O)c2ccccc2C)cc1` is lower in Activity: 80% for the first, 66.1% for the second.

Going from `Cc1ccc([C@@H]2CC=C(C(=O)O)[C@H](c3cccc(Cl)c3)N2S(=O)(=O)c2ccccc2)cc1` to `Cc1ccc([C@@H]2CC=C(C(=O)O)[C@H](c3cccc(Br)c3)N2S(=O)(=O)c2ccccc2)cc1`, the Activity rises from 56.7% to 67.2%.

Compared with `CCCS[C@@H]1C[C@@H](c2ccccc2)N(S(=O)(=O)c2ccc(C)cc2)C[C@H]1C(=O)O`, `CCCS[C@@H]1C[C@@H](c2ccc(OC)cc2)N(S(=O)(=O)c2ccc(C)cc2)C[C@H]1C(=O)O` is higher in Activity: 75.7% for the first, 88.9% for the second.

First: CCOc1ccc([C@@H]2C[C@@H](SCCC(C)C)[C@H](C(=O)O)CN2S(=O)(=O)c2ccc(C)cc2)cc1
Second: COc1ccc([C@@H]2C[C@@H](SCCC(C)C)[C@H](C(=O)O)CN2S(=O)(=O)c2ccc(C)cc2)cc1
The Activity of the first is higher: 95.9% for the first, 90% for the second.

Compared with `CC(=O)C1=CC[C@@H](c2cccc(Br)c2)N(S(=O)(=O)c2ccc(C)cc2)C1`, `CC(=O)C1=CC[C@@H](c2ccc(C)cc2)N(S(=O)(=O)c2ccc(Cl)cc2)C1` is higher in Activity: 105% for the first, 112% for the second.

Compared with `Cc1ccc([C@@H]2CC=C(C(=O)O)[C@H](c3ccc(Br)cc3)N2S(=O)(=O)c2ccccc2)cc1`, `Cc1ccc([C@@H]2CC=C(C(=O)O)[C@H](c3ccc(Cl)cc3)N2S(=O)(=O)c2ccccc2)cc1` is higher in Activity: 78.4% for the first, 79.9% for the second.

Compared with `Cc1ccc(S(=O)(=O)N2[C@@H](c3cccc(Cl)c3)C(C(=O)O)=CC[C@H]2c2ccc3c(c2)OCO3)cc1`, `Cc1ccc(S(=O)(=O)N2[C@@H](c3ccc(Br)cc3)C(C(=O)O)=CC[C@H]2c2ccc3c(c2)OCO3)cc1` is higher in Activity: 73.9% for the first, 74.4% for the second.

Going from `Cc1ccc(S(=O)(=O)N2[C@@H](c3ccc(F)cc3)C(C(=O)O)=CC[C@H]2c2ccc(C(C)C)cc2)cc1` to `Cc1ccc(S(=O)(=O)N2[C@@H](c3ccc(C(C)(C)C)cc3)C(C(=O)O)=CC[C@H]2c2ccc(C(C)C)cc2)cc1`, the Activity rises from 50.9% to 88.3%.

First: COc1ccc([C@@H]2CC=C(C(=O)O)[C@H](c3ccc(Cl)cc3)N2S(=O)(=O)c2ccccc2)cc1
Second: COc1ccc([C@@H]2CC=C(C(=O)O)[C@H](c3ccc(C(C)(C)C)cc3)N2S(=O)(=O)c2ccccc2)cc1
The Activity of the first is higher: 86.8% for the first, 82.2% for the second.

Compared with `Cc1ccc([C@@H]2CC=C(C(=O)O)[C@H](c3cccc(C)c3)N2S(=O)(=O)c2ccccc2C)cc1`, `Cc1ccc(S(=O)(=O)N2[C@@H](c3cccc(C)c3)C(C(=O)O)=CC[C@H]2c2ccc(Cl)cc2)cc1` is higher in Activity: 53.4% for the first, 66% for the second.

Going from `CCS[C@@H]1C[C@@H](c2cccc(Cl)c2)N(S(=O)(=O)c2ccc(C)cc2)C[C@H]1C(=O)O` to `CCCCCCS[C@@H]1C[C@@H](c2cccc(Br)c2)N(S(=O)(=O)c2ccc(C)cc2)C[C@H]1C(=O)O`, the Activity falls from 75.7% to 68.9%.

Compared with `COc1ccc([C@@H]2C[C@@H](SCCC(C)C)[C@H](C(=O)O)CN2S(=O)(=O)c2ccccc2)cc1`, `COc1ccc([C@@H]2C[C@@H](SCC(C)C)[C@H](C(=O)O)CN2S(=O)(=O)c2ccccc2C)cc1` is lower in Activity: 96.7% for the first, 79.7% for the second.

Going from `Cc1ccc(S(=O)(=O)N2[C@@H](c3cccc(F)c3)C(C(=O)O)=CC[C@H]2c2ccc(F)cc2)cc1` to `CCc1ccc([C@@H]2CC=C(C(=O)O)[C@H](c3cccc(F)c3)N2S(=O)(=O)c2ccc(C)cc2)cc1`, the Activity falls from 70.1% to 55%.

Going from `COc1ccc([C@@H]2CC=C(C(=O)O)[C@H](c3cccc(C)c3)N2S(=O)(=O)c2ccccc2)cc1` to `COc1ccc([C@@H]2CC=C(C(=O)O)[C@H](c3cccc(Cl)c3)N2S(=O)(=O)c2ccccc2C)cc1`, the Activity falls from 72.6% to 66.1%.

Compared with `Cc1cccc([C@H]2C(C(=O)O)=CC[C@@H](c3ccccc3)N2S(C)(=O)=O)c1`, `Cc1cccc([C@H]2C(C(=O)O)=CC[C@@H](c3ccc(Cl)cc3)N2S(C)(=O)=O)c1` is lower in Activity: 68.1% for the first, 45.5% for the second.

Going from `CC(=O)C1=CC[C@@H](c2cccc3ccccc23)N(S(=O)(=O)c2ccc(C)cc2)C1` to `Cc1ccc(S(=O)(=O)N2[C@@H](c3ccc(Br)cc3)C(C(=O)O)=CC[C@H]2c2ccccc2F)cc1`, the Activity falls from 95.6% to 72.8%.

Compared with `Cc1ccc([C@@H]2CC=C(C(=O)O)[C@H](c3ccc(F)cc3)N2S(C)(=O)=O)cc1`, `Cc1ccc([C@H]2C(C(=O)O)=CC[C@@H](c3ccc(C)cc3)N2S(C)(=O)=O)cc1` is lower in Activity: 84.4% for the first, 78% for the second.

Compared with `CCCCS[C@@H]1C[C@@H](c2ccc(OC)c(OC)c2)N(S(=O)(=O)c2ccc(C)cc2)C[C@H]1C(=O)O`, `CCCCCS[C@@H]1C[C@@H](c2ccc(OC)c(OC)c2)N(S(=O)(=O)c2ccc(C)cc2)C[C@H]1C(=O)O` is lower in Activity: 114% for the first, 109% for the second.

Compared with `CCc1ccc([C@@H]2C[C@@H](SC3CCCC3)[C@H](C(=O)O)CN2S(=O)(=O)c2ccc(C)cc2)cc1`, `CCCCCCS[C@@H]1C[C@@H](c2ccc(Cl)cc2)N(S(=O)(=O)c2ccc(C)cc2)C[C@H]1C(=O)O` is lower in Activity: 87% for the first, 72.2% for the second.

First: COc1ccc(S[C@@H]2C[C@@H](c3ccc(OC)cc3)N(S(=O)(=O)c3ccccc3)C[C@H]2C(=O)O)cc1
Second: CCOc1ccc([C@@H]2C[C@@H](Sc3ccc(OC)cc3)[C@H](C(=O)O)CN2S(=O)(=O)c2ccc(C)cc2)cc1
The Activity of the first is higher: 90.5% for the first, 79.1% for the second.

First: Cc1ccc(S(=O)(=O)N2[C@@H](c3cccc(C)c3)C(C(=O)O)=CC[C@H]2c2cccc(C)c2)cc1
Second: Cc1ccc(S(=O)(=O)N2[C@@H](c3cccc(Cl)c3)C(C(=O)O)=CC[C@H]2c2cccc(F)c2)cc1
The Activity of the first is lower: 58% for the first, 62.3% for the second.

First: CCCCS[C@@H]1C[C@@H](c2cc(OC)c(OC)c(OC)c2)N(S(=O)(=O)c2ccc(C)cc2)C[C@H]1C(=O)O
Second: COc1cc([C@@H]2C[C@@H](SCc3ccccc3)[C@H](C(=O)O)CN2S(=O)(=O)c2ccc(C)cc2)cc(OC)c1OC
The Activity of the first is higher: 73.5% for the first, 63.7% for the second.

Compared with `Cc1ccc([C@@H]2C[C@@H](SCc3ccc(Cl)cc3)[C@H](C(=O)O)CN2S(=O)(=O)c2ccc(C)cc2)cc1`, `COc1ccc([C@@H]2C[C@@H](SCc3ccccc3)[C@H](C(=O)O)CN2S(=O)(=O)c2ccc(C)cc2)cc1OC` is higher in Activity: 50.9% for the first, 54.5% for the second.

First: CCCCCCS[C@@H]1C[C@@H](c2ccc(OC)cc2)N(S(=O)(=O)c2ccccc2C)C[C@H]1C(=O)O
Second: CCCCCCS[C@@H]1C[C@@H](c2ccc(Cl)cc2)N(S(=O)(=O)c2ccccc2C)C[C@H]1C(=O)O
The Activity of the first is higher: 72.9% for the first, 66.3% for the second.

Compared with `Cc1ccc([C@H]2C(C(=O)O)=CC[C@@H](c3ccc(C#N)cc3)N2S(=O)(=O)c2ccc(C)cc2)cc1`, `Cc1ccc(S(=O)(=O)N2[C@@H](c3ccc(C(C)(C)C)cc3)C(C(=O)O)=CC[C@H]2c2ccc(F)cc2)cc1` is lower in Activity: 90.9% for the first, 85.1% for the second.

Compared with `COc1cccc([C@@H]2CC=C(C(=O)O)[C@H](c3ccc(C(C)(C)C)cc3)N2S(=O)(=O)c2ccc(C)cc2)c1`, `COc1ccc([C@@H]2CC=C(C(=O)O)[C@H](c3ccc(Br)cc3)N2S(=O)(=O)c2ccc(C)cc2)cc1OC` is lower in Activity: 95.8% for the first, 74% for the second.

First: CCCCS[C@@H]1C[C@@H](c2ccc(Cl)cc2)N(S(=O)(=O)c2ccccc2C)C[C@H]1C(=O)O
Second: CCCS[C@@H]1C[C@@H](c2ccc(OC)cc2)N(S(=O)(=O)c2ccc(Cl)cc2)C[C@H]1C(=O)O
The Activity of the first is higher: 87.5% for the first, 72.8% for the second.

First: CCCCCCS[C@@H]1C[C@@H](c2ccc(C)cc2)N(S(C)(=O)=O)C[C@H]1C(=O)O
Second: COc1ccc([C@@H]2C=CCCN2S(=O)(=O)c2ccc(C)cc2)cc1
The Activity of the first is lower: 83.1% for the first, 99.7% for the second.

In the case of `COc1ccc([C@@H]2CC=C(C(=O)O)[C@H](c3cccc(C)c3)N2S(=O)(=O)c2ccc(C)cc2)cc1OC`, the Activity is reported as 76%.
